The kinase profiling compilation of Christmann-Franck et al. (2016)
Each block holds one compound with its values, some of them ahead of it.

How the values were obtained:
Assay in all cases: radiometric filter-binding kinase assay
[1] = test system: AKT2 (human), P31751 [S474D]
[2] = molecular target: BTK (human) (UniProt Q06187)
[3] = molecular target: CSNK1D (human) (UniProt P48730)
[4] = molecular target: CSNK2A1 (human) (UniProt P68400)
[5] = molecular target: DYRK2 (human) (UniProt Q92630)
[6] = molecular target: FLT1 (human) (UniProt P17948)
[7] = molecular target: HIPK2 (human) (UniProt Q9H2X6)
[8] = molecular target: INSR (human) (UniProt P06213)
[9] = molecular target: INSRR (human) (UniProt P14616)
[10] = molecular target: MAPK1 (human) (UniProt P28482)
[11] = molecular target: MAPK11 (human) (UniProt Q15759)
[12] = molecular target: MAPK14 (human) (UniProt Q16539)
[13] = molecular target: MAPK15 (human) (UniProt Q8TD08)
[14] = molecular target: MARK3 (human) (UniProt P27448)
[15] = molecular target: MKNK2 (human) (UniProt Q9HBH9)
[16] = molecular target: NEK2 (human) (UniProt P51955)
[17] = molecular target: NEK6 (human) (UniProt Q9HC98)
[18] = molecular target: PRKCA (human) (UniProt P17252)
[19] = molecular target: RPS6KA1 KD1 KD2 (human) (UniProt Q15418)
[20] = molecular target: RPS6KA5 KD1 KD2 (human) (UniProt O75582)
[21] = test system: RPS6KB1 (human), P23443 [T412E]
[22] = molecular target: SRPK1 (human) (UniProt Q96SB4)
[23] = molecular target: YES1 (human) (UniProt P07947)

Chain of HIPK2 (human) (Q9H2X6 whole entry, looked up): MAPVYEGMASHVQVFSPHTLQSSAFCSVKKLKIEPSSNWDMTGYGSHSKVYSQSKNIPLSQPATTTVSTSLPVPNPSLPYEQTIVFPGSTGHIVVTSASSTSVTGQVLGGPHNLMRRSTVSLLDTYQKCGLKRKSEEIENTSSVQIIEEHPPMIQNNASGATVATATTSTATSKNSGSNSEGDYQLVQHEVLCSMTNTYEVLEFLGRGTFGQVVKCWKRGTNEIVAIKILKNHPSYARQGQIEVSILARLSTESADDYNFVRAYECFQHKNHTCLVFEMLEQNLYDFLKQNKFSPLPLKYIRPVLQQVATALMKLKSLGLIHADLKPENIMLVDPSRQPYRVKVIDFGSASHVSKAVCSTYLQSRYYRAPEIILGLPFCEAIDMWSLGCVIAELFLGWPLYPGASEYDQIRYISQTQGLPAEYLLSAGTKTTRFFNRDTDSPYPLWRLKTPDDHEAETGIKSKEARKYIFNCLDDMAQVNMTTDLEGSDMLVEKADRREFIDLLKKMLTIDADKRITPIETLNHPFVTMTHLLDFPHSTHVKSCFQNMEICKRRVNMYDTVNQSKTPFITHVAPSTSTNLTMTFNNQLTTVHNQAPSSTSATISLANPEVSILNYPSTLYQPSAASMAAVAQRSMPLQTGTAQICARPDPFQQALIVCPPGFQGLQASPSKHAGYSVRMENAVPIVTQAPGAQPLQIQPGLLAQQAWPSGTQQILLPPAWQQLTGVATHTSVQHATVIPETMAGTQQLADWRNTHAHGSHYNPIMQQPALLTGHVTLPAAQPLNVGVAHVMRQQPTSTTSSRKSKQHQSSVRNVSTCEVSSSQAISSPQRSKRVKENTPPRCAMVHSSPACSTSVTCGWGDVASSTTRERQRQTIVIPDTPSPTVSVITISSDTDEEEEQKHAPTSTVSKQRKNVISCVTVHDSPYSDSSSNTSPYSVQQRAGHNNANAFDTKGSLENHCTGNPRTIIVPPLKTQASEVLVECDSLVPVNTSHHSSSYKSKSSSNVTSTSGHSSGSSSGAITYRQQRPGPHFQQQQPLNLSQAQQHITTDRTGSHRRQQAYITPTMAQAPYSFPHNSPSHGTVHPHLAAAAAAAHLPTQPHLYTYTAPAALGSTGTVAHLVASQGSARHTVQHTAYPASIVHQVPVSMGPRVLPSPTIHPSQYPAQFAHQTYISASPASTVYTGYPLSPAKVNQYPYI
Chain of RPS6KB1 (human), P23443 [T412E] (P23443 whole entry T412E, looked up): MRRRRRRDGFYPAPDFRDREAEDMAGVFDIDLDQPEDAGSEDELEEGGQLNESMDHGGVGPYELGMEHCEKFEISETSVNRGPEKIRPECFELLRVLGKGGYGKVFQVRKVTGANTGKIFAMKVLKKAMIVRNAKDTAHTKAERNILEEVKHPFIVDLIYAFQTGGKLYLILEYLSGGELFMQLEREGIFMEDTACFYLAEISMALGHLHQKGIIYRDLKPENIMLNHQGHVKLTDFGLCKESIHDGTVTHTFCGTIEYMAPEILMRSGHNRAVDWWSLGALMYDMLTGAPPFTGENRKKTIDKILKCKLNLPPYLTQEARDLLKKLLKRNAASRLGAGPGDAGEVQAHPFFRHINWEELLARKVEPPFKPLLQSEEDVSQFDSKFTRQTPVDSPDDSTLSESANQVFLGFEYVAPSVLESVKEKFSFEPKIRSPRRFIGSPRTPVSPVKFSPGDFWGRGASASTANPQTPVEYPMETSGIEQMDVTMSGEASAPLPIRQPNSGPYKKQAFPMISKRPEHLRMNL
Chain of NEK6 (human) (Q9HC98 whole entry, looked up): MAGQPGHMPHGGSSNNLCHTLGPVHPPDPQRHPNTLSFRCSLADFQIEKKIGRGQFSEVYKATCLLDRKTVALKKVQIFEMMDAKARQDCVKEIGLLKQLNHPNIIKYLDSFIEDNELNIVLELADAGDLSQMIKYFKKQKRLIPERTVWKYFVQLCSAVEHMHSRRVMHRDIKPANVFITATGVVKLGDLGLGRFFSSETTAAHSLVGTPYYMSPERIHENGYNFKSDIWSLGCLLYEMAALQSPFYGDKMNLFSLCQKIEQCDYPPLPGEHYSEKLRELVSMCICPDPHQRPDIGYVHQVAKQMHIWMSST
Chain of MAPK15 (human) (Q8TD08 whole entry, looked up): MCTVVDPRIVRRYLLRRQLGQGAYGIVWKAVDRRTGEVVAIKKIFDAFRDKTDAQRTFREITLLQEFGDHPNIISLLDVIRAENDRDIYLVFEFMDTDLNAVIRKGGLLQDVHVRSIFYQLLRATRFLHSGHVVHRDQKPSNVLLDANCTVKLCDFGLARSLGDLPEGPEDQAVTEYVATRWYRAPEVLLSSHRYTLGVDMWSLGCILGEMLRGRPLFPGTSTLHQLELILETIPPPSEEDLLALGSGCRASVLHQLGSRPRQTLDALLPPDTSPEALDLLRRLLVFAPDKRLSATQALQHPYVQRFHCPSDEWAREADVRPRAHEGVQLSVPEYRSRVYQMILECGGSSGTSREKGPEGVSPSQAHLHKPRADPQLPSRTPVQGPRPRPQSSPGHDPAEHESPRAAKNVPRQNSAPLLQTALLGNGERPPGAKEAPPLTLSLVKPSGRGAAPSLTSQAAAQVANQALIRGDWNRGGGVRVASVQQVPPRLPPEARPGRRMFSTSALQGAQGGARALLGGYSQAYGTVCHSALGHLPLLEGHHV
Chain of MARK3 (human) (P27448 whole entry, looked up): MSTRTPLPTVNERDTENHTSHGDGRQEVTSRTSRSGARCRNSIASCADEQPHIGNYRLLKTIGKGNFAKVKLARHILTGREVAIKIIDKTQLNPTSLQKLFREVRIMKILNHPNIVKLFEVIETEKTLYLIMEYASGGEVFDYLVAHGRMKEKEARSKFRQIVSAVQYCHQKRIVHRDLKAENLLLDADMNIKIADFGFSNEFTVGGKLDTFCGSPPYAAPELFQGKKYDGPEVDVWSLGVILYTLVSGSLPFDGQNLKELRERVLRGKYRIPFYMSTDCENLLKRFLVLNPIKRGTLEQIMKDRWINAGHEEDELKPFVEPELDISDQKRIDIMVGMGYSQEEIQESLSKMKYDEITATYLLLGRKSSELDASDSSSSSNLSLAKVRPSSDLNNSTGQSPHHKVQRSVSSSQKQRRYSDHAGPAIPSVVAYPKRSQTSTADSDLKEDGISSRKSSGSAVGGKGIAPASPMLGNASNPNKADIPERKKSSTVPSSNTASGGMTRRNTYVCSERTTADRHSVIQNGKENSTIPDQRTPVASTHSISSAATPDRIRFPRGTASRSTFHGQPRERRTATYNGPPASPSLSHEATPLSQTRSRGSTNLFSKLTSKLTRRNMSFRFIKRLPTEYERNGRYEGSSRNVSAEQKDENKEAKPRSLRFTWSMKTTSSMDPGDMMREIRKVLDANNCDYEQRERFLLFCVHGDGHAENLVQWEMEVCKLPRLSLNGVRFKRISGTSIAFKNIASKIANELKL
Chain of INSR (human) (P06213 whole entry, looked up): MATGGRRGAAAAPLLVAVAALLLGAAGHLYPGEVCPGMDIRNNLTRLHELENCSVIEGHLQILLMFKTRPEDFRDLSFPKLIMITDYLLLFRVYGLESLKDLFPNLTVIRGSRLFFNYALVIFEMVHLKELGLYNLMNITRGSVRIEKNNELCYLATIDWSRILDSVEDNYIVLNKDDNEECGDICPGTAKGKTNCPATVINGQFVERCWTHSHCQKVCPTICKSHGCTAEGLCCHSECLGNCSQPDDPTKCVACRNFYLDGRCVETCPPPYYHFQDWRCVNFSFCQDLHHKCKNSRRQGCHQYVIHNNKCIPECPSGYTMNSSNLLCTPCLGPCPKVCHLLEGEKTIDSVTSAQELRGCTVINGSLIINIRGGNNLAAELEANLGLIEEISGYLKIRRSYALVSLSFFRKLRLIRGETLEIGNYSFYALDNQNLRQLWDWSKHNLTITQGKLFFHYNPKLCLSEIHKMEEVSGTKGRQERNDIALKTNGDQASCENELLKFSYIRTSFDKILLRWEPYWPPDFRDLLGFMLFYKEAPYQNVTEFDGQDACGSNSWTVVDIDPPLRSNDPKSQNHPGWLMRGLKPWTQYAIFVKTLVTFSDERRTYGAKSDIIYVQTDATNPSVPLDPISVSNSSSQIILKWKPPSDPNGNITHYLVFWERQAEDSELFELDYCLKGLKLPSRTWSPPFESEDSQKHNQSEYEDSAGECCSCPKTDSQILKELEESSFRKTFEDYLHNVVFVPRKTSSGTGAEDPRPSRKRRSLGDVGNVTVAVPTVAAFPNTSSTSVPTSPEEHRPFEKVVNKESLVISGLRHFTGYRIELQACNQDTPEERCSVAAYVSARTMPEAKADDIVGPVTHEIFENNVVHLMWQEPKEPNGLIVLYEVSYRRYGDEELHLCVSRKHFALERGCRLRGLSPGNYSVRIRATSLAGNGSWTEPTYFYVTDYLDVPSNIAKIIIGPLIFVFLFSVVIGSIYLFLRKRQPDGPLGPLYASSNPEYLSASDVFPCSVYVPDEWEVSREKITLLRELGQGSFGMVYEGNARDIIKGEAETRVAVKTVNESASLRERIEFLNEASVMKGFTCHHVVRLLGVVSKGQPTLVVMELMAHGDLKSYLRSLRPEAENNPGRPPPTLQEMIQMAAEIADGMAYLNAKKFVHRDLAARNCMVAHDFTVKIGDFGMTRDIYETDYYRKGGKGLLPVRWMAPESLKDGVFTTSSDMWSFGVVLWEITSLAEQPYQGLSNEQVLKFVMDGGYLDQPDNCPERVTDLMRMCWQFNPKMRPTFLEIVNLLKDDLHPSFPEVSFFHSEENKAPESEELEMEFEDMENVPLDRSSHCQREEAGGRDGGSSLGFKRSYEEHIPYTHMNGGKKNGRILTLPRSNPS
Chain of MAPK1 (human) (P28482 whole entry, looked up): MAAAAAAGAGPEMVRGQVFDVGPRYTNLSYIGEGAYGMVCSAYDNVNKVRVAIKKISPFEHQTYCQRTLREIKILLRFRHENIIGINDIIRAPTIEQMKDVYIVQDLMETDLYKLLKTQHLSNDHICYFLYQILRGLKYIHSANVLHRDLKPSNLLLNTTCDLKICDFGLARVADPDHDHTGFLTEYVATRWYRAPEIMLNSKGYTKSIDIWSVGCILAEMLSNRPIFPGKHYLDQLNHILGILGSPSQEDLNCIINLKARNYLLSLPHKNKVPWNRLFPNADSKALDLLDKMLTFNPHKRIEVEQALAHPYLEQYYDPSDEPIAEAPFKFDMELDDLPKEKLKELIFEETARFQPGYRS

residual activity ([1]; compound 0.1 µM): 88%
residual activity ([1]; compound 1.0 µM): 77%
residual activity ([1]; compound 10.0 µM): 36%
residual activity ([2]; compound 0.1 µM): 86%
residual activity ([2]; compound 1.0 µM): 29%
residual activity ([2]; compound 10.0 µM): 9%
residual activity ([3]; compound 0.1 µM): 90%
residual activity ([3]; compound 1.0 µM): 59%
residual activity ([3]; compound 10.0 µM): 20%
residual activity ([4]; compound 0.1 µM): 93%
residual activity ([4]; compound 1.0 µM): 65%
residual activity ([4]; compound 10.0 µM): 21%
residual activity ([5]; compound 0.1 µM): 19%
residual activity ([5]; compound 1.0 µM): 2%
residual activity ([5]; compound 10.0 µM): 0%
residual activity ([6]; compound 0.1 µM): 7%
residual activity ([6]; compound 1.0 µM): 3%
residual activity ([6]; compound 10.0 µM): 1%
residual activity ([7]; compound 0.1 µM): 33%
residual activity ([7]; compound 1.0 µM): 7%
residual activity ([7]; compound 10.0 µM): 1%
residual activity ([8]; compound 0.1 µM): 112%
residual activity ([8]; compound 1.0 µM): 101%
residual activity ([8]; compound 10.0 µM): 26%
residual activity ([9]; compound 0.1 µM): 35%
residual activity ([9]; compound 1.0 µM): 16%
residual activity ([9]; compound 10.0 µM): 5%
residual activity ([10]; compound 0.1 µM): 81%
residual activity ([10]; compound 1.0 µM): 41%
residual activity ([10]; compound 10.0 µM): 16%
residual activity ([11]; compound 0.1 µM): 103%
residual activity ([11]; compound 1.0 µM): 80%
residual activity ([11]; compound 10.0 µM): 49%
residual activity ([12]; compound 0.1 µM): 81%
residual activity ([12]; compound 1.0 µM): 80%
residual activity ([12]; compound 10.0 µM): 45%
residual activity ([14]; compound 0.1 µM): 16%
residual activity ([14]; compound 1.0 µM): 5%
residual activity ([14]; compound 10.0 µM): 3%
residual activity ([15]; compound 0.1 µM): 75%
residual activity ([15]; compound 1.0 µM): 46%
residual activity ([15]; compound 10.0 µM): 16%
residual activity ([16]; compound 0.1 µM): 100%
residual activity ([16]; compound 1.0 µM): 75%
residual activity ([16]; compound 10.0 µM): 28%
residual activity ([17]; compound 0.1 µM): 92%
residual activity ([17]; compound 1.0 µM): 76%
residual activity ([17]; compound 10.0 µM): 38%
residual activity ([18]; compound 0.1 µM): 106%
residual activity ([18]; compound 1.0 µM): 83%
residual activity ([18]; compound 10.0 µM): 27%
residual activity ([19]; compound 0.1 µM): 24%
residual activity ([19]; compound 1.0 µM): 10%
residual activity ([19]; compound 10.0 µM): 5%
residual activity ([20]; compound 0.1 µM): 98%
residual activity ([20]; compound 1.0 µM): 73%
residual activity ([20]; compound 10.0 µM): 30%
residual activity ([21]; compound 0.1 µM): 76%
residual activity ([21]; compound 1.0 µM): 32%
residual activity ([21]; compound 10.0 µM): 12%
residual activity ([22]; compound 0.1 µM): 90%
residual activity ([22]; compound 1.0 µM): 75%
residual activity ([22]; compound 10.0 µM): 36%
residual activity ([23]; compound 0.1 µM): 32%
residual activity ([23]; compound 1.0 µM): 8%
residual activity ([23]; compound 10.0 µM): 3%
SMILES: NC(=O)Nc1ccc2c(c1)/C(=C/c1cc(-c3cccnc3)c[nH]1)C(=O)N2
residual activity ([13]; compound 0.1 µM): 5%
residual activity ([13]; compound 1.0 µM): 2%
residual activity ([13]; compound 10.0 µM): 1%

SMILES: C[C@H]1CCCC(=O)CCC/C=C/c2cc(O)cc(O)c2C(=O)O1
residual activity ([1]; compound 1.0 µM): 97%
residual activity ([1]; compound 10.0 µM): 89%
residual activity ([2]; compound 1.0 µM): 107%
residual activity ([2]; compound 10.0 µM): 69%
residual activity ([3]; compound 1.0 µM): 99%
residual activity ([3]; compound 10.0 µM): 83%
residual activity ([4]; compound 1.0 µM): 97%
residual activity ([4]; compound 10.0 µM): 96%
residual activity ([5]; compound 1.0 µM): 90%
residual activity ([5]; compound 10.0 µM): 62%
residual activity ([6]; compound 1.0 µM): 95%
residual activity ([6]; compound 10.0 µM): 69%
residual activity ([7]; compound 1.0 µM): 100%
residual activity ([7]; compound 10.0 µM): 63%
residual activity ([8]; compound 1.0 µM): 107%
residual activity ([8]; compound 10.0 µM): 102%
residual activity ([9]; compound 1.0 µM): 75%
residual activity ([9]; compound 10.0 µM): 41%
residual activity ([10]; compound 1.0 µM): 98%
residual activity ([10]; compound 10.0 µM): 96%
residual activity ([11]; compound 1.0 µM): 108%
residual activity ([11]; compound 10.0 µM): 101%
residual activity ([12]; compound 1.0 µM): 93%
residual activity ([12]; compound 10.0 µM): 85%
residual activity ([13]; compound 1.0 µM): 77%
residual activity ([13]; compound 10.0 µM): 26%
residual activity ([14]; compound 1.0 µM): 102%
residual activity ([14]; compound 10.0 µM): 99%
residual activity ([15]; compound 1.0 µM): 64%
residual activity ([15]; compound 10.0 µM): 23%
residual activity ([16]; compound 1.0 µM): 93%
residual activity ([16]; compound 10.0 µM): 96%
residual activity ([17]; compound 1.0 µM): 91%
residual activity ([17]; compound 10.0 µM): 91%
residual activity ([18]; compound 1.0 µM): 54%
residual activity ([18]; compound 10.0 µM): 69%
residual activity ([19]; compound 1.0 µM): 89%
residual activity ([19]; compound 10.0 µM): 41%
residual activity ([20]; compound 10.0 µM): 36%
residual activity ([21]; compound 1.0 µM): 106%
residual activity ([21]; compound 10.0 µM): 61%
residual activity ([22]; compound 1.0 µM): 95%
residual activity ([22]; compound 10.0 µM): 89%
residual activity ([23]; compound 1.0 µM): 79%
residual activity ([23]; compound 10.0 µM): 35%

residual activity ([1]; compound 1.0 µM): 103%
residual activity ([1]; compound 10.0 µM): 103%
residual activity ([2]; compound 1.0 µM): 92%
residual activity ([2]; compound 10.0 µM): 95%
residual activity ([3]; compound 1.0 µM): 82%
residual activity ([3]; compound 10.0 µM): 80%
residual activity ([4]; compound 1.0 µM): 84%
residual activity ([4]; compound 10.0 µM): 79%
residual activity ([5]; compound 1.0 µM): 103%
residual activity ([5]; compound 10.0 µM): 111%
residual activity ([6]; compound 1.0 µM): 84%
residual activity ([6]; compound 10.0 µM): 74%
residual activity ([7]; compound 1.0 µM): 101%
residual activity ([7]; compound 10.0 µM): 156%
residual activity ([8]; compound 1.0 µM): 107%
residual activity ([8]; compound 10.0 µM): 103%
residual activity ([9]; compound 1.0 µM): 81%
residual activity ([9]; compound 10.0 µM): 95%
residual activity ([10]; compound 1.0 µM): 100%
residual activity ([10]; compound 10.0 µM): 102%
residual activity ([11]; compound 1.0 µM): 91%
residual activity ([11]; compound 10.0 µM): 94%
residual activity ([12]; compound 1.0 µM): 82%
residual activity ([12]; compound 10.0 µM): 98%
residual activity ([14]; compound 1.0 µM): 93%
residual activity ([14]; compound 10.0 µM): 91%
residual activity ([15]; compound 1.0 µM): 99%
residual activity ([15]; compound 10.0 µM): 83%
residual activity ([16]; compound 1.0 µM): 94%
residual activity ([16]; compound 10.0 µM): 153%
residual activity ([17]; compound 1.0 µM): 101%
residual activity ([18]; compound 1.0 µM): 96%
residual activity ([18]; compound 10.0 µM): 88%
residual activity ([19]; compound 1.0 µM): 106%
residual activity ([19]; compound 10.0 µM): 113%
residual activity ([20]; compound 1.0 µM): 96%
residual activity ([20]; compound 10.0 µM): 92%
residual activity ([21]; compound 1.0 µM): 98%
residual activity ([21]; compound 10.0 µM): 105%
residual activity ([22]; compound 1.0 µM): 96%
residual activity ([22]; compound 10.0 µM): 87%
residual activity ([23]; compound 1.0 µM): 98%
residual activity ([23]; compound 10.0 µM): 102%
SMILES: Cc1cc(SCc2sc(-c3ccc(C(F)(F)F)cc3)nc2C)ccc1OCC(=O)O
residual activity ([13]; compound 1.0 µM): 103%
residual activity ([13]; compound 10.0 µM): 109%
